The record followed here is the supplement of paper PMC6723410.

The structures appear in SMILES notation.

The subject of the first test is GUMC-403. Briefly: viability at highest tested concentration (max response) relative to DMSO (% of DMSO control); higher = less cytotoxic. The conditions noted are these: library / dose series: MIPE library, 11-point 1:3 dilution; top concentration 23 µM; 48 h. The procedure, abridged:
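This value is viability at the highest tested concentration relative to vehicle control. GUMC-403 papilloma cells from a patient, grown by conditional reprogramming, were plated at 700/well in 1536-well plates and given 23 nL of compound by pin tool for 48 h. CellTiter-Glo luminescence on a ViewLux was normalised with vehicle wells at 100% and empty wells at 0%.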
Compound `Clc1ccc2c(N3CCN(CCCN4CCN(c5ccnc6cc(Cl)ccc56)CC4)CC3)ccnc2c1` gave a viability of 119.

Staying with this test, now noted: library / dose series: MIPE library, 11-point 1:3 dilution; top concentration 46.1 µM; 48 h.
On to `CC(C)CNc1ccnc(NCc2csc(-c3ccccc3)n2)n1`, for which the viability is 100. The same measure, in the same setting: next, `CCn1c(-c2nonc2N)nc2cncc(CNC3CCNCC3)c21`: 121; `CN1[C@@H]2CCC[C@H]1C[C@@H](NC(=O)c1nn(C)c3ccccc13)C2.Cl`: 105. As for `CN(C)[C@H]\1[C@@H]2[C@@H](O)[C@@H]\3C(=C)C4=C(C(=CC=C4)O)C(=O)C3=C(\O)[C@@]2(O)C(=O)\C(=C1O)C(N)=O`, the viability is 96.5. `C#C[C@]1(O)CC[C@H]2[C@@H]3CCc4cc(O)ccc4[C@H]3CC[C@@]21C` displayed a viability of 74.3. On the same count and under the same terms, the result for `O=C(O)CC/C=C\CC[C@@H]1[C@@H](N2CCCCC2)[C@@H](O)C[C@@H]1OCc1ccc(-c2ccccc2)cc1` reads 112; that for `CC1=C(C)C2=C(S1)[N]3C(=NN=C3[C@H](CC(=O)OC(C)(C)C)/N=C2/C4=CC=C(Cl)C=C4)C`, 65; that for `CC(S)C(=O)NCC(=O)O` (stereo unspecified), 135. Same read-out and setting: the result for `N[C@@H](C(=O)N[C@H]1[C@H]2SC\C(=C(/N2C1=O)C(O)=O)Cl)C3=CC=CC=C3` reads 122; that for `CSC1=CC(=CC=C1)NC2=NC3=C(C=N2)/C=C(C(=O)N3C)/C4=C(Cl)C=CC=C4Cl`, 107; that for `C1CCC(C(CC2CCCCN2)C2CCCCC2)CC1` (stereo unspecified), 85.1. Same read-out and setting: next, `C[C@@H]1CN(Cc2ccc(F)cc2)[C@@H](C)CN1C(=O)c1cc2c(C(=O)C(=O)N(C)C)cn(C)c2cc1Cl`: 101; `OCC(O)C(O)C(O)CO` (stereo unspecified): 97.1. As for `OC[C@@H](O)[C@@H](O)[C@H](O)[C@@H](O)CO`, the viability was found to be 128. Same read-out and setting: next, `CN1C(=O)/C=C(/NCCN(CCO)CCCC2=CC=C(C=C2)[N+]([O-])=O)N(C)C1=O`: 94.3; `CC1(C)O[C@@H]2C[C@H]3[C@@H]4CCC5=CC(=O)C=C[C@]5(C)[C@H]4[C@@H](O)C[C@]3(C)[C@]2(C(=O)CO)O1`: 147; `O=C(Nc1cccc(C(F)(F)F)c1)Nc1cc([S+](=O)([O-])NC2CC2)ccc1-c1ccsc1`: 124. On to `CC1(C)O[C@H]2CC(=O)OC[C@]23[C@H]2CC[C@@]4(C)[C@H](c5ccoc5)OC(=O)[C@H]5O[C@]54[C@]2(C)C(=O)C[C@@H]13`, for which the viability stood at 139.

With `CC1SC/2=C(C(O)=O)/C(=O)C3=CC(=C(C=C3N12)N4CCN(CC4)C\C5=C(C)\OC(=O)O5)F` (stereo unspecified), the viability turned out to be 112. On the same count and under the same terms, the result for `Oc1ccc(C2CCN(c3ccnc4ccccc34)CC2)cc1O` reads 92.8. Still for that read-out and setting: the result for `CC(=O)O.Cc1c(-c2ccc(O)cc2)n(Cc2ccc(OCCN3CCCCCC3)cc2)c2ccc(O)cc12` reads 130. Still for that read-out and setting: next, `N[S+](=O)([O-])c1ccc(Nc2nc(OCC3CCCCC3)c3[nH]cnc3n2)cc1`: 46.9; `CC(C)OC(=O)CCC/C=C\C[C@@H]1[C@@H](/C=C/[C@@H](O)COc2cccc(C(F)(F)F)c2)[C@H](O)C[C@@H]1O`: 118; `CC(=O)NC(CS)C(=O)O` (stereo unspecified): 91.1. Turning to `C[C@H]1O[C@H](O[C@H]2[C@H](O)[C@@H](O)[C@H](O[C@@H]2CO)O[C@H]3[C@H](O)[C@@H](O)C(O)O[C@@H]3CO)[C@H](O)[C@@H](O)[C@@H]1N[C@H]4\C=C(CO)/[C@@H](O)[C@H](O)[C@H]4O` (stereo partly specified), the viability was determined as 135. On to `COc1ccc(CCC(=O)Nc2nc3ccc(Cl)cc3s2)cc1OC`, for which the viability came out at 47.9. Turning to `CN1CCN(C2=Nc3cc(Cl)ccc3Nc3ccccc32)CC1`, the viability amounted to 109. Still for that read-out and setting: next, `COC1=CC=CC(=C1N)\C2=C\C(=O)C3=C(O2)C=CC=C3`: 57.1; `Clc1ccc(-c2nc3sccn3c2/C=N/OCc2ccc(Cl)c(Cl)c2)cc1`: 85.8. `CC[C@@]1(O)C(=O)OCC/2=C1/C=C3\N(CC4=CC5=CC(=CC=C5N=C34)O)C2=O`: the viability is 42.5.
